Data on two compounds can be found in ChEMBL document CHEMBL3132751, “Crafting precise multivalent architectures” (Medchemcomm, 2013).

The assay addresses T1, CD209 antigen (Homo sapiens, UniProt Q9NNX6).
T1 sequence (Q9NNX6 whole entry): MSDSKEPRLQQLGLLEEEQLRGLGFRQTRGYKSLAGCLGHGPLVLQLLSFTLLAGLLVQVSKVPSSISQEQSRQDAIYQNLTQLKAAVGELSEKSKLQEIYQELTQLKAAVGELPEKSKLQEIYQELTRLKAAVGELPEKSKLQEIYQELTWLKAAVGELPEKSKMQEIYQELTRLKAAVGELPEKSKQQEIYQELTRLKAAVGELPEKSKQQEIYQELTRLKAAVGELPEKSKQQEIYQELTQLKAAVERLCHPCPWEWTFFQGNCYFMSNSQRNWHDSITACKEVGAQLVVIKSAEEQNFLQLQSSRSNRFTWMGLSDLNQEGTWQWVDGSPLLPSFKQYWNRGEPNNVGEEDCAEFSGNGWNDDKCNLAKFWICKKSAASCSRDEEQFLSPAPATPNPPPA
Description: Binding affinity to DC-SIGN (unknown origin).

In the case of `CC(=O)N[C@H](C=O)[C@@H](O)[C@H](O)[C@H](O)CO`, the Kd came to 8.7 mM.

For the compound `C[C@H](O)[C@@H](O)[C@@H](O)[C@H](O)C=O` [L-FUCOSE], binding was put at a Kd of 6.7 mM. This Kd and that of the compound before are within 1.5-fold of each other.

The Kd is the free concentration of one partner at which half of the binding sites on the other are occupied at equilibrium, for simple one-to-one binding. Low values mean tighter binding, high ones weaker binding.
